Measurements: patent publication EP3782997A1, “FUSED PYRIMIDINE COMPOUNDS AND PHARMACEUTICAL COMPOSITIONS THEREOF FOR THE TREATMENT OF FIBROTIC DISEASES” (Galapagos N.V., priority 2019, dated 2021)
pIC50: −log10 of the molar value.

These compounds were tested against hENPP2 (Homo sapiens, UniProt Q13822) (assay: Human ENPP2 (hENPP2) biochemical assay using LPC as substrate). Conditions: 150 µM LPC (palmitoyl 16:0), 37°C for 30 min.
Experimental: The principle of the assay conswasts in quantifying the released choline with an enzymatic method using choline oxidase and peroxidase. Choline oxydation by choline oxydase releases betaine and peroxide. The latter was quantified in presence of HRP that converts the peroxide detection agent TOOS (CAS# 82692-93-1) and 4-aminoantipyrine into quinoneimine dye. The appearance of quinoneimine dye was measured spectrophotometrically at 555 nm and was proportional to the amount of choline released by ENPP2. Inhibition of ENPP2 results in a decrease of the signal.
Compound IC50 values were determined in a hENPP2 (UniProtKB/SwwassProt Sequence ref Q13822) biochemical assay using LPC as substrate.
5 µL of a dilution series of compound, starting from 50 µM highest concentration, 1/3 dilution, was added to the wells. hENPP2 was used at a final concentration of 1 µg/mL or 3 µg/mL (it will be appreciated by the skilled person that the potency read out was independent of the enzyme concentration). The enzyme was diluted in 50 mM Trwas-HCl pH 8.5, 500 mM NaCl, 5 mM KCl, 10 mM CaCl2, 0.1% fatty acid free BSA in a total volume of 10 µL. The reaction was started by the addition of 10 µL of 150 µM LPC (palmitoyl 16:0; Avanti Polar Lipids, Inc., Cat# 855675) diluted in the same buffer as described above and the mixture was incubated at 37°C for 30 min. The reaction was terminated and choline quantified by the addition of a 25 µL of a mixture containing 0.6 U/mL of choline oxidase, 0.6 U/mL of peroxydase, 1.8 mM TOOS, 1.2 mM amino-antipyrine, 20 mM EGTA (stop-developer solution) diluted in the buffer described above. […] was read on an Envision plate reader (PerkinElmer, Inc.) after an incubation of 30 min at room temperature (excitation 555 nm).

SMILES	pIC50
Cc1cc(C)cc(Nc2ncc3c(n2)CN(C2CN(C(=O)c4ccc5[nH]nnc5c4)CC2(F)F)C3)c1 (centres unmarked) [Cpd 101, 1H-benzotriazol-5-yl-[4-[2-(3,5-dimethylanilino)-5,7-dihydropyrrolo[3,4-d]pyrimidin-6-yl]-3,3-difluoro-pyrrolidin-1-yl]methanone]	6.30 to 7.00
COC(=O)[C@@H]1C[C@H](N2Cc3cnc(Nc4cc(C)cc(C)c4)nc3C2)CCN1C(=O)c1ccc2[nH]nnc2c1 [Cpd 104, methyl (2S,4R)-1-(1H-benzotriazole-5-carbonyl)-4-[2-(3,5-dimethylanilino)-5,7-dihydropyrrolo[3,4-d]pyrimidin-6-yl]pipe ridine-2-carboxylate]	7.00 to 11.00
Cc1cc(C)cc(Nc2ncc3c(n2)CN(C2CCN(C(=O)c4ccc5[nH]cnc5c4)CC2)C3)c1 [Cpd 108, 1H-benzimidazol-5-yl-[4-[2-(3,5-dimethylanilino)-5,7-dihydropyrrolo[3,4-d]pyrimidin-6-yl]-1-piperidyl]methanone]	6.00 to 6.30
Cc1cc(C)cc(Nc2ncc3c(n2)CN(C2CCN(C(=O)c4cc5nn[nH]c5cc4F)C(C)(C)C2)C3)c1 (centres unmarked) [Cpd 117, [4-[2-(3,5-dimethylanilino)-5,7-dihydropyrrolo[3,4-d]pyrimidin-6-yl]-2,2-dimethyl-1-piperidyl]-(6-fluoro-1H-benzotriazol-5-yl)methanone]	7.00 to 11.00
Cc1cc(C)cc(Nc2ncc3c(n2)CN(C2CCN(C(=O)c4ccc5oc(=O)[nH]c5c4)CC2)C3)c1 [Cpd 118, 5-[4-[2-(3,5-dimethylanilino)-5,7-dihydropyrrolo[3,4-d]pyrimidin-6-yl]piperidine-1-carbonyl]-3H-1,3-benzoxazol-2-one]	< 6.00
Cc1cc(C)cc(Nc2ncc3c(n2)CN([C@H]2CCN(C(=O)c4ccc(S(N)(=O)=O)cc4)[C@@H](C)C2)C3)c1 [Cpd 124, 4-[(2S,4S)-4-[2-(3,5-dimethylanilino)-5,7-dihydropyrrolo[3,4-d]pyrimidin-6-yl]-2-methyl-piperidine-1-carbonyl]benzenesulfonamide]	< 6.00
COc1cc(C)cc(Nc2ncc3c(n2)CN([C@@H]2CCN(C(=O)c4ccc5[nH]nnc5c4)[C@H](C)C2)C3)c1 [Cpd 125, 1H-benzotriazol-5-yl-[(2R,4R)-4-[2-(3-methoxy-5-methyl-anilino)-5,7-dihydropyrrolo[3,4-d]pyrimidin-6-yl]-2-methyl-1-piperidyl]methanone]	7.00 to 11.00
Cc1cc(C)cc(Nc2ncc3c(n2)CN(C2(C)CCN(C(=O)c4ccc5[nH]nnc5c4)CC2)C3)c1 [Cpd 130, 1H-benzotriazol-5-yl-[4-[2-(3,5-dimethylanilino)-5,7-dihydropyrrolo[3,4-d]pyrimidin-6-yl]-4-methyl-1-piperidyl]methanone]	7.00 to 11.00
Cc1cc(C)cc(Nc2ncc3c(n2)CN([C@H]2CCN(C(=O)c4ccc(S(=O)(=O)NC(=O)C(C)C)cc4)[C@@H](C)C2)C3)c1 [Cpd 131, N-[4-[(2S,4S)-4-[2-(3,5-dimethylanilino)-5,7-dihydropyrrolo[3,4-d]pyrimidin-6-yl]-2-methyl-piperidine-1-carbonyl]phenyl]sulfonyl-2-methyl-propanamide]	< 6.00
Cc1cc(C)cc(Nc2ncc3c(n2)CN([C@H]2CCN(C(=O)c4ccc(C(=O)O)cc4)[C@@H](C)C2)C3)c1 [Cpd 132, 4-[(2S,4S)-4-[2-(3,5-dimethylanilino)-5,7-dihydropyrrolo[3,4-d]pyrimidin-6-yl]-2-methyl-piperidine-1-carbonyl]benzoic acid]	< 6.00
Cc1cc(C)cc(Nc2ncc3c(n2)CN([C@H]2CCN(C(=O)c4ccc(C(=O)NS(C)(=O)=O)cc4)[C@@H](C)C2)C3)c1 [Cpd 133, 4-[(2S,4S)-4-[2-(3,5-dimethylanilino)-5,7-dihydropyrrolo[3,4-d]pyrimidin-6-yl]-2-methyl-piperidine-1-carbonyl]-N-methylsulfonylbenzamide]	< 6.00
Cc1cc(C)cc(Nc2ncc3c(n2)CCN(C2CCN(C(=O)c4ccc5[nH]nnc5c4)[C@@H](C)C2)CC3)c1 (stereo partly drawn) [Cpd 142, 1H-benzotriazol-5-yl-[(2S)-4-[2-(3,5-dimethylanilino)-5,6,8,9-tetrahydropyrimido[4,5-d]azepin-7-yl]-2-methyl-1-piperidyl]methanone]	6.30 to 7.00
Cc1cc(C)cc(Nc2ncc3c(n2)CN([C@@H]2CCN(C(=O)c4cccc(C(=O)O)c4)[C@H](C)C2)C3)c1 [Cpd 146, 3-[(2R,4R)-4-[2-(3,5-dimethylanilino)-5,7-dihydropyrrolo[3,4-d]pyrimidin-6-yl]-2-methyl-piperidine-1-carbonyl]benzoic acid]	< 6.00
Cc1cc(C)cc(Nc2ncc3c(n2)CN([C@@H]2CCN(C(=O)c4ccc(-c5nnn[nH]5)cc4)[C@H](C)C2)C3)c1 [Cpd 153, [(2R,4R)-4-[2-(3,5-dimethylanilino)-5,7-dihydropyrrolo[3,4-d]pyrimidin-6-yl]-2-methyl-1-piperidyl]-[4-(1H-tetrazol-5-yl)phenyl]methanone]	< 6.00
Cc1cc(C)cc(Nc2ncc3c(n2)CCN(C2(C)CCN(C(=O)c4ccc5[nH]nnc5c4)CC2)C3)c1 [Cpd 158, 1H-benzotriazol-5-yl-[4-[2-(3,5-dimethylanilino)-7,8-dihydro-5H-pyrido[4,3-d]pyrimidin-6-yl]-4-methyl-1-piperidyl]methanone]	7.00 to 11.00
C[C@@H]1C[C@H](N2Cc3cnc(Nc4ccc(C#N)cc4)nc3C2)CCN1C(=O)c1ccc2[nH]nnc2c1 [Cpd 160, 4-[[6-[(2R,4R)-1-(1H-benzotriazole-5-carbonyl)-2-methyl-4-piperidyl]-5,7-dihydropyrrolo[3,4-d]pyrimidin-2-yl]amino]benzonitrile]	7.00 to 11.00
Cc1cc(C)cc(Nc2ncc3c(n2)CCN(C2CN(C(=O)c4ccc5[nH]nnc5c4)C2)C3)c1 [compound 2, 1H-benzotriazol-5-yl-[3-[2-(3,5-dimethylanilino)-7,8-dihydro-5H-pyrido[4,3-d]pyrimidin-6-yl]azetidin-1-yl]methanone]	6.30 to 7.00
Cc1cc(C)cc(Nc2ncc3c(n2)CCN(C2CCN(C(=O)c4ccc5[nH]c(=O)oc5c4)C2)C3)c1 (centres unmarked) [compound 4, 6-[3-[2-(3,5-dimethylanilino)-7,8-dihydro-5H-pyrido[4,3-d]pyrimidin-6-yl]pyrrolidine-1-carbonyl]-3H-1,3-benzoxazol-2-one]	7.00 to 11.00
Cc1cc(C)cc(Nc2ncc3c(n2)CCN(C2CCN(C(=O)c4ccc5[nH]nnc5c4)C2)C3)c1 (centres unmarked) [compound 5, 1H-benzotriazol-5-yl-[3-[2-(3,5-dimethylanilino)-7,8-dihydro-5H-pyrido[4,3-d]pyrimidin-6-yl]pyrrolidin-1-yl]methanone]	6.30 to 7.00
O=C(c1ccc2[nH]c(=O)oc2c1)N1CC(N2Cc3cnc(Nc4cc(C(F)(F)F)cc(C(F)(F)F)c4)nc3C2)C1 [compound 6, 6-[3-[2-[3,5-bis(trifluoromethyl)anilino]-5,7-dihydropyrrolo[3,4-d]pyrimidin-6-yl]azetidine-1-carbonyl]-3H-1,3-benzoxazol-2-one]	7.00 to 11.00
Cc1cc(C)cc(Nc2ncc3c(n2)CCN(C2CCN(C(=O)c4ccc5[nH]c(=O)oc5c4)CC2)C3)c1 [compound 7, 6-[4-[2-(3,5-dimethylanilino)-7,8-dihydro-5H-pyrido[4,3-d]pyrimidin-6-yl]piperidine-1-carbonyl]-3H-1,3-benzoxazol-2-one]	6.30 to 7.00
O=C(c1ccc2[nH]c(=O)oc2c1)N1CC(N2CCc3nc(Nc4cc(C(F)(F)F)cc(C(F)(F)F)c4)ncc3C2)C1 [compound 8, 6-[3-[2-[3,5-bis(trifluoromethyl)anilino]-7,8-dihydro-5H-pyrido[4,3-d]pyrimidin-6-yl]azetidine-1-carbonyl]-3H-1,3-benzoxazol-2-one]	7.00 to 11.00
O=C(c1ccc2[nH]nnc2c1)N1CC(N2Cc3cnc(Nc4cc(C(F)(F)F)cc(C(F)(F)F)c4)nc3C2)C1 [compound 9, 1H-benzotriazol-5-yl-[3-[2-[3,5-bis(trifluoromethyl)anilino]-5,7-dihydropyrrolo[3,4-d]pyrimidin-6-yl]azetidin-1-yl]methanone]	7.00 to 11.00
Cc1cc(C)cc(Nc2ncc3c(n2)CN(C2CCN(C(=O)c4ccc5[nH]nnc5c4)CC2)C3)c1 [compound 10, 1H-benzotriazol-5-yl-[4-[2-(3,5-dimethylanilino)-5,7-dihydropyrrolo[3,4-d]pyrimidin-6-yl]-1-piperidyl]methanone]	7.00 to 11.00
Cc1cc(C)cc(Nc2ncc3c(n2)CN(C2CCN(C(=O)c4ccc5[nH]c(=O)oc5c4)CC2)C3)c1 [compound 11, 6-[4-[2-(3,5-dimethylanilino)-5,7-dihydropyrrolo[3,4-d]pyrimidin-6-yl]piperidine-1-carbonyl]-3H-1,3-benzoxazol-2-one]	7.00 to 11.00
Cc1cc(C)cc(Nc2ncc3c(n2)CN(C2CCN(C(=O)c4ccc5[nH]c(=O)oc5c4)C2)C3)c1 (centres unmarked) [compound 12, 6-[3-[2-(3,5-dimethylanilino)-5,7-dihydropyrrolo[3,4-d]pyrimidin-6-yl]pyrrolidine-1-carbonyl]-3H-1,3-benzoxazol-2-one]	7.00 to 11.00
